These results are taken from PMC10150365 (Journal of Medicinal Chemistry, 2023).

Data set [1] in a line: Plasma protein binding and blood-to-plasma ratio. The class given is in vitro ADME, mouse.
The nature of data set [2]: Free fraction in CellTiter-Blue assay medium (dialysis). The class given is in vitro ADME. As to conditions: dialysis from CellTiter-Blue assay medium; 90% CI.
Data set [3] can be described thus: Plasma stability. The class given is in vitro ADME. As to conditions: pooled plasma, read-out: Compound remaining (% of 0 min); for remaining at 15 min, 1 µM: 37 °C. Here is the method:
AUCu0-24h was assumed from the mouse efficacy study. […] F=oral bioavailability and
Compd Species Compound remaining (% of 0 min)

Data set [4] can be described thus: Rat blood PK (Sprague-Dawley). The class given is in vivo. As to conditions: SD rats.
Data set [5] deals with Caco-2.
The nature of data set [6]: in vitro. The note with it: human; for recovery: Caco-2, pH 7.4, Recovery.
Data set [7] can be described thus: Plasma protein binding and blood-to-plasma ratio. The class given is in vitro ADME, rat.
The nature of data set [8]: Plasma protein binding and blood-to-plasma ratio. As to conditions: for fub: BALB/c mouse blood, fub = fup/B:P; for Plasma, fup: BALB/c mouse, 90% CI.
Data set [9] can be described thus: in vitro. The class given is in vitro ADME, mouse.
Data set [10] is described as follows: physchem. The note with it: pH 7.4.
Data set [11] can be described thus: in vitro. The class given is in vitro ADME. The note with it: mouse.
The nature of data set [12]: physchem. As to conditions: pH 7.4. The source holds these as a separate data set.
The nature of data set [13]: iv PK in CF1 wild-type and P-gp-knockout mice. The class given is in vivo, mouse. As to conditions: mouse, in vivo, iv, 5 mg/kg, read-out: Vss.
Data set [14] deals with P-gp. The data set can be described thus: iv PK in CF1 wild-type and P-gp-knockout mice. The class given is in vivo, mouse. The note with it: for Cltb: 5 mg/kg iv, 90% CI, 5 mg/kg.
Data set [15] can be described thus: in vitro. The class given is in vitro ADME. As to conditions: male, Sprague Dawley, rat, microsomes, pH 7.4; n = 1, fraction unbound assumed 1; read-out: Microsome Clint, rat (RLM).
For data set [16], the system named is SK-OV-3. The data set can be described thus: cells. The class given is cell-based, human. The note with it: for GI50: Homo sapiens.
Data set [17] in a line: in vitro. The class given is in vitro ADME. The note with it: both sexes, human, microsomes, pH 7.4; n = 1, fraction unbound assumed 1; read-out: Microsome Clint, human (HLM).
Data set [18] can be described thus: Mouse blood PK (BALB/c).
In data set [19] the test system is P-gp-mediated efflux (CH1^doxR/CH1^WT). The class given is cell-based, human. As to conditions: ratio of geometric mean GI50 values, CellTiter-Blue.
The test system of data set [20] is CH1^WT. The data set is described as follows: CH1 WT growth inhibition, CellTiter-Blue. The class given is cell-based. As to conditions: Homo sapiens, CH1WT.
Data set [21] concerns CH1^doxR. The data set is described as follows: CH1doxR growth inhibition, CellTiter-Blue. The class given is cell-based, human.
For data set [22], the system named is PA1. As to conditions: PA1, 96 h.
Data set [23] relates to RMG-1. The note with it: RMG-1, 96 h.
The test system of data set [24] is OVCAR5. As to conditions: OVCAR5, 96 h.
The subject of data set [25] is human ovarian cancer cell lines. The note with it: carboplatin N = 4 cell lines; 1 N = 9 cell lines.
The mark [26] stands for this setting: female, BALB/c, mouse, in vivo, po, 5 mg/kg.

Values after ≈ are worked out from the molar mass of the structure shown. Values joined by “and” are separate entries in the source; they are usually repeats but may differ in a detail not shown here. Equal entries are not always repeated. Where two headings read alike, the source gives them in different places. Marks after values point to notes of the source that are not given here. Bounds are passed on as bounds.

With `Cc1ccc(NC(=O)c2ccc3c(c2)OCCO3)cc1NC(=O)c1ccc2nc(OCCN3CCCC3)ccc2c1` [Compound 1], the fub in data set [1] (athymic mouse blood, fub = fup/B:P) worked out at 0.015; in data set [7] (Sprague Dawley rat blood, fub = fup/B:P), 0.019; in data set [8], 0.0083. Besides, the “Plasma, fup” value is listed as 0.025 (0.031-0.020) in [1] (athymic mouse, 90% CI); 0.029 (0.036-0.023) in data set [7] (Sprague Dawley rat, 90% CI); 0.010 in data set [8]. In [2], the “Assay medium, fua” value is on record as 0.47 (0.54-0.42). Moreover, the fraction remaining at 15 min, 1 µM in [3] (human plasma) worked out at 104%; in data set [3] (mouse plasma) it was 97.8%. Also, the fraction remaining at 30 min, 1 µM in data set [3] (human plasma) is 96.4%; in data set [3] (mouse plasma), 91.3%. Further, the share remaining at 60 min, 1 µM in data set [3] (human plasma) worked out at 97%; in data set [3] (mouse plasma) it was 93.3%. For the same compound, the share remaining at 120 min, 1 µM in [3] (human plasma) stood at 95.1%; in [3] (mouse plasma), 85.9%. In data set [4], this compound gave an Fmax of 71%. For the same compound, in data set [4] (iv), the “iv Cltb” value is 1.2 L/h/kg. Also, the “Free Cav^0–24h” value in data set [4] (po (Table S12)) came to 0.00072 µM. The Vdu in [4] (Vss/fub) turned out to be 230 L/kg. Besides, the Cmax in [4] (female, Sprague-Dawley (CD), rat, whole blood, 5 mg/kg, po) worked out at 0.063 µM. Also, the bioavailability at 24 h in data set [4] (female, Sprague-Dawley (CD), rat, whole blood, po, 5 mg/kg) was 11%. Moreover, the Vd in [4] (female, Sprague-Dawley (CD), rat, whole blood, iv, read-out: Vss) turned out to be 4.4 L/kg. In [4] (female, Sprague-Dawley, rat, whole blood, 5 mg/kg, po), the Tmax is above 6 h. Also, in data set [4] (female, Sprague-Dawley, rat, whole blood, 5 mg/kg, terminal, from iv dose), the half-life is 3.2 h. For the same compound, in data set [4] (female, Sprague-Dawley, rat, whole blood, po, 5 mg/kg, po, t = 24 h, read-out: po AUC^0–t), the AUC was found to be 840 nM·h. The same compound yielded an A2B in data set [5] (geometric mean) of 2.4 nm/s. Also, the B2A was 39 nm/s in data set [5] (geometric mean); 23 nm/s and 46 nm/s and 55 nm/s in data set [5] (individual experiments). Besides, the “A2B + LY335979” value in data set [5] (individual experiments) is recorded as 2.3 nm/s. In addition, the “B2A + LY335979” value in [5] (individual experiments) was found to be 15 nm/s. The Papp A→B at 2 h, 10 µM in [6] (Caco-2, pH 7.4) worked out at 24 nm/s. Also, the recovery in [6] (A2B + LY335979, geometric mean row) was 50%; in data set [6] (A2B + LY335979, individual experiments) it was 50%; in [6] (A2B, geometric mean row), 90%; in [6] (A2B, individual experiments) it was 90%; in data set [6] (B2A + LY335979, geometric mean row), 100%; in [6] (B2A + LY335979, individual experiments), 100%. The recovery in data set [6] (B2A, geometric mean row) came to 70%; in data set [6] (B2A, individual experiments), 70%.
On to `Cc1ccc(NC(=O)c2ccc3c(c2)OCCO3)cc1NC(=O)c1ccc2nc(CN3CCN(C(C)C)CC3)ccc2c1` [Compound 16, N-(5-(2,3-Dihydrobenzo[b][1,4]dioxine-6-carboxamido)-2-methylphenyl)-2-((4-isopropylpiperazin-1-yl)methyl)quinoline-6-carboxamide], for which the microsomal CLint in data set [9] (male, CD1, mouse, microsomes, pH 7.4, n = 1, fraction unbound assumed 1, read-out: Microsome Clint, mouse (MLM)) stood at 10 µL/min/mg. Moreover, the “Pred. in vivo CLu from MLM” value in data set [9] (scaling factors, well-stirred model) was 2.34 L/h/kg. In addition, the solubility (kinetic) at 2 h, 100 µM in data set [10] turned out to be 80 µM (≈ 46.4 µg/mL). The hepatocyte CLint at 1 h, 1 µM in data set [11] (hepatocytes, n = 1, read-out: Mouse Heps CLint) amounted to 20 µL/min/1e6 cells. In data set [11] (fraction unbound in assay assumed 0.4 or 0.2), the “Pred. in vivo CLu from Heps” value was 460 ^h mL/min/kg. This compound also gave a chromatographic logD in data set [12] of 1.9. Besides, the Vd is 3.6 L/kg in data set [13] (CF1 mdr1a P-gp deficient (CF1-Abcb1amds), CF1^PGP-KO mice); 3.2 L/kg in data set [13] (CF1 wild type, CF1^WT mice); 2.6 L/kg in data set [18] (female, BALB/c, mouse, in vivo, iv). Moreover, the “Extraction Ratio (% of HBF)” value is 27 (21-34) % in data set [14] (CF1^PGP-KO mice) and 39 (46-33) % in [14] (CF1^WT mice). Moreover, the Cltb was 24 mL/min/kg and 24 (31-19) mL/min/kg in [14] (CF1^PGP-KO mice); 35 mL/min/kg and 35 (42-30) mL/min/kg in data set [14] (CF1^WT mice). Also, the microsomal CLint at 0.75 h, 1 µM is 7 µL/min/mg in [15] and 43 µL/min/mg in [17]. In addition, the GI50 was 8.71 nM in data set [16] (SK-OV-3, 96 h, read-out: SK-OV-3 pGI50 ± SEM (n) (converted)) and 8.8 nM in data set [16] (SK-OV-3, 96 h, CellTiter-Blue, geometric mean, read-out: SK-OV-3 GI50). In data set [18] (BALB/c mice), this compound yielded an Fmax of 62%. Besides, the “iv Cltb” value in [18] (BALB/c mice, iv 5 mg/kg (18: 1 mg/kg), 90% CI) is 34 (36–32) mL/min/kg. Also, the “Free Cav^0–24h” value in [18] (BALB/c mice, po, AUC^inf/24*fub) was 0.00066 µM. Moreover, in [18] (BALB/c mice, CLtb/fub), the CLu was determined as 66 L/h/kg. The compound also registered a Vdu in data set [18] (BALB/c mice, Vss/fub) of 80 L/kg. Also, in [18] (BALB/c mice, hepatic blood flow 90 mL/min/kg), the extraction ratio was determined as 38%. The compound also had a half-life at 24 h in [18] (female, BALB/c, mouse, in vivo, iv, 5 mg/kg) of 1.2 h. The Cmax in data set [18] (setting [26]) came out at 0.13 µM. Also, the Tmax at 24 h in [18] (setting [26]) was found to be 1.7 h. In [18] (setting [26]), this compound displayed a bioavailability at 24 h of 11%. The AUC in data set [18] (female, BALB/c, mouse, in vivo, po, 5 mg/kg, AUCu^0–6h, BALB/c mice, AUC*fub) was determined as 14 nM·h; in data set [18] (female, BALB/c, mouse, in vivo, po, 5 mg/kg, po AUC^0–6h, BALB/c mice, po 5 mg/kg, 90% CI) it was 430 nM·h. Besides, the fub in data set [8] stood at 0.032. Besides, in data set [8], the “Plasma, fup” value is 0.042 (0.071-0.024). The blood plasma ratio at 30 min, 1 µM in data set [8] (female, BALB/c, mouse, plasma) was 1.3. Also, the “CH1^doxR/CH1^WT (fold resistance)” value in [19] was found to be 8.4.
Turning to `COc1cccc2c1C(=O)c1c(O)c3c(c(O)c1C2=O)C[C@@](O)(C(=O)CO)C[C@@H]3O[C@H]1C[C@H](N)[C@H](O)[C@H](C)O1` [Doxorubicin], the GI50 in data set [20] (+ verapamil 2 µM) came to 0.3 nM; in data set [20] (no verapamil), 0.4 nM; in data set [21] (Homo sapiens, + verapamil 2 µM), 1.9 nM; in data set [21] (Homo sapiens, no verapamil), 310 nM; in [21] (no verapamil) it was 305 nM.
Consider Carboplatin, for which the “pGI50±SEM (n)” value in [22] is 5.8; in data set [23] it was below 4.7; in [24], below 5.0. Also, in data set [16] (96 h, CellTiter-Blue, pGI50 = −log GI50 (M)), the “SK-OV-3 pGI50 ± SEM (n)” value was below 4.7. The “pGI50 across the panel” value in [25] is listed as below 6.
